From patent US20060063784A1, “Method of using substituted pyrazolo [1,5-a] pyrimidines” (priority 2004, published 2006)
Read-outs that look alike come from different tables or passages of the source.

Columns and labels:
[1] = system: 80S14 (p21-deficient) cells; test: Cytotoxicity assay using isogenic cell lines: IC50 in 80S14 (p21-deficient) cells, SRB; assay type: cell-based, human
Outline: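 IC50 is the concentration halving proliferation relative to untreated controls, read from SRB absorbance (560 nm) after TCA fixation. Test agent dilutions (5 pM–50 μM or 170 pg/ml–10 μg/ml) were left on p21-deficient 80S14 cells (12,000/well, pre-incubated overnight) for 5 days at 37 °C.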

LoVo Colon cell line = test: Cytotoxicity assay using LoVo colon cell line, SRB; assay type: cell-based; conditions: read-out: Inhibition of LoVo
Outline: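 Growth inhibition read by sulforhodamine B after 4-day compound exposure at 37 °C. Colon LoVo cells plated at 4000 per well in RPMI/10% FBS a day earlier; doses ranged 5 pM-20 μM or 170 pg/ml-10 μg/ml. IC50 is the concentration halving proliferation versus untreated wells.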

[2] = Homo sapiens, 120 h, 80S14 (p21-deficient) cells, 5 days, SRB, class symbols, read-out: IC50 for 80S14
[3] = Homo sapiens, 96 h, Cellular activity in LoVo cell, 4 days incubation, SRB
[4] = Homo sapiens, 120 h, 80S14 p21-deficient cells, 5 days incubation, SRB, read-out: IC50 for 80SI4
[5] = Homo sapiens, 96 h, LoVo colon cells, 4 days incubation, SRB

Row | Compound | IC50 [1, 2] [µM] | IC50 (LoVo Colon cell line; [3]) [µM] | other results
1 | O=C(c1cccs1)c1cnn2c(-c3cccc(-c4ccn(CC5CCC5)n4)c3)ccnc12 [Example 515, (7-{3-[1-(Cyclobutylmethyl)-1H-pyrazol-3-yl]phenyl}pyrazolo[1,5-a]pyrimidin-3-yl)(thien-2-yl)methanone] | < 1 | < 0.1 | 
2 | CN(C)C(=O)Nc1cccc(-c2ccnc3c(C(=O)c4cccs4)cnn23)c1 [Example 46, N,N-dimethyl-N′-{3-[3-(thien-2-ylcarbonyl)pyrazolo[1,5-a]pyrimidin-7-yl]phenyl}urea] |  |  | IC50 [1, 4]: 1 to 10 µM; IC50 (LoVo Colon cell line; [5]): 1 to 2 µM
3 | C/C=C(\C)CNc1cccc(-c2ccnc3c(C(=O)c4cccs4)cnn23)c1 [Example 431, [7-(3-{[(2E)-2-Methylbut-2-enyl]amino}phenyl)pyrazolo[1,5-a]pyrimidin-3-yl] (thien-2-yl)methanone] | 1 to 10 | 0.1 to 1 | 
4 | O=C(c1cccs1)c1cnn2c(-c3cccc(-c4nnn(Cc5cccnc5)n4)c3)ccnc12 [Example 503, (7-{3-[2-(Pyridin-3-ylmethyl)-2H-tetraazol-5-yl]phenyl}pyrazolo[1,5-a]pyrimidin-3-yl)(thien-2-yl)methanone] | < 1 | 0.1 to 1 | 
5 | O=C(Nc1cccc(-c2ccnc3c(C(=O)c4cccs4)cnn23)c1)OC1CCCCC1 [Example 172, cyclohexyl 3-(3-(thien-2-ylcarbonyl)pyrazolo[1,5-a]pyrimidin-7-yl]phenylcarbamate] |  |  | IC50 [1, 4]: < 1 µM; IC50 (LoVo Colon cell line; [5]): < 0.1 µM
6 | Cc1cc(C)cc(-c2cnn3c(-c4cccc(-c5nnn(Cc6cccnc6)n5)c4)ccnc23)c1 [Example 494, 3-(3,5-Dimethylphenyl)-7-{3-[2-(pyridin-3-ylmethyl)-2H-tetrazol-5-yl]phenyl}pyrazolo[1,5-a]pyrimidine] | 1 to 10 | 0.1 to 1 | 
7 | O=C(Nc1ccc(Cl)c(-c2ccnc3c(C(=O)c4cccs4)cnn23)c1)c1ccccc1 [Example 341, N-{4-Chloro-3-[3-(thien-2-ylcarbonyl)pyrazolo[1,5-a]pyrimidin-7-yl]phenyl}benzamide] | 1 to 10 | 0.1 to 1 | 
8 | COc1ccccc1C(=O)Nc1cccc(-c2ccnc3c(C(=O)c4cccs4)cnn23)c1 [Example 93, 2-methoxy-N-{3-[3-(thien-2-ylcarbonyl)pyrazolo[1,5-a]pyrimidin-7-yl]phenyl}benzamide] |  |  | IC50 [1, 4]: < 1 µM; IC50 (LoVo Colon cell line; [5]): < 0.1 µM
9 | O=C(Nc1cccc(-c2ccnc3c(C(=O)c4cccs4)cnn23)c1)c1ccco1 [Example 285, N-{3-[3-(2-Thienylcarbonyl)pyrazolo[1,5-a]pyrimidin-7-yl]phenyl}-2-furamide] | < 1 | < 0.1 | 
10 | CCCCN(C)C(=O)Nc1cccc(-c2ccnc3c(C(=O)c4cccs4)cnn23)c1 [Example 156, N-butyl-N-methyl-N′-{3-[3-(thien-2-ylcarbonyl)pyrazolo[1,5-a]primidin-7-yl]phenyl}urea] |  |  | IC50 ([1]; 80S14 p21-deficient cells, 5 days incubation, SRB, read-out: IC50 for 80SI4): < 1 µM; IC50 (LoVo Colon cell line; LoVo colon cells, 4 days incubation, SRB): 0.1 to 1 µM
11 | O=C(Nc1cccc(-c2ccnc3c(C(=O)c4cccs4)cnn23)c1)c1c(Cl)cccc1Cl [Example 384, 2,6-Dichloro-N-{3-[3-(thien-2-ylcarbonyl)pyrazolo[1,5-a]pyrimidin-7-yl]phenyl}benzamide] | 1 to 10 | 0.1 to 1 | 
12 | Cc1cc(-c2cccc(NC(=O)OCCCl)c2)n2ncc(C(=O)c3cccs3)c2n1 [Example 198, 2-chloroethyl 3-[5-methyl-3-(thien-2-ylcarbonyl)pyrazolo[1,5-a]pyrimidin-7-yl]phenylcarbamate] |  |  | IC50 [1, 4]: < 1 µM; IC50 (LoVo Colon cell line; [5]): < 0.1 µM
13 | CCCC(=O)Nc1cccc(-c2ccnc3c(C(=O)c4cccs4)cnn23)c1 [Example 148, N-{3-[3-(thien-2-ylcarbonyl)pyrazolo[1,5-a]pyrimidin-7-yl]phenyl}butanamide] |  |  | IC50 ([1]; Homo sapiens, 80S14, 120 h, read-out: IC50 for 80SI4 (uM)): < 1 µM; IC50 (LoVo Colon cell line; Homo sapiens, LoVo, 96 h): < 0.1 µM
14 | O=C(c1cccs1)c1cnn2c(-c3cccc(NCc4ccco4)c3)ccnc12 [Example 367, (7-{3-[(2-Furylmethyl)amino]phenyl}pyrazolo[1,5-a]pyrimidin-3-yl)(thien-2-yl)methanone] | 1 to 10 | 0.1 to 1 | 
15 | O=C(c1cccs1)c1cnn2c(-c3cccc(-c4nnn(CCN5CCCCC5)n4)c3)ccnc12 [Example 512, (7-{3-[2-(2-Piperidin-1-ylethyl)-2H-tetraazol-5-yl]phenyl}pyrazolo[1,5-a]pyrimidin-3-yl)(thien-2-yl)methanone] | 1 to 10 | 0.1 to 1 | 
16 | CCCCNC(=S)Nc1cccc(-c2ccnc3c(C(=O)c4cccs4)cnn23)c1 [Example 364, N-Butyl-N′-{3-[3-(thien-2-ylcarbonyl)pyrazolo[1,5-a]pyrimidin-7-yl]phenyl}thiourea] | < 1 | < 0.1 | 

Row | Compound | IC50 [1, 2] [µM] | IC50 (LoVo Colon cell line; [3]) [µM] | other results
17 | CCN(CC)C(=O)Nc1cccc(-c2ccnc3c(C(=O)c4cccs4)cnn23)c1 [Example 159, N,N-diethyl-N′-{3-[3-(thien-2-ylcarbonyl)pyrazolo[1,5-a]pyrimidin-7-yl]phenyl}urea] |  |  | IC50 [1, 4]: 1 to 10 µM; IC50 (LoVo Colon cell line; [5]): 0.1 to 1 µM
18 | CCCCCCCCCC(C)CNc1cccc(-c2ccnc3c(C(=O)c4cccs4)cnn23)c1 (stereo not shown) [Example 447, (7-{3-[(2-Methylundecyl)amino]phenyl}pyrazolo[1,5-a]pyrimidin-3-yl)(thien-2-yl)methanone] | 10 to 50 | 1 to 20 | 
19 | CCCNc1cccc(-c2ccnc3c(C(=O)c4cccs4)cnn23)c1 [Example 267, [7-[3-(Propylamino)phenyl]pyrazolo[1,5-a]pyrimidin-3-yl]-2-thienyl-methanone] | 1 to 10 | 0.1 to 1 | 
20 | O=C(c1cccs1)c1cnn2c(-c3cccc(NCc4ccc(Cl)cc4)c3)ccnc12 [Example 366, (7-{3-[(4-Chlorobenzyl)amino]phenyl}pyrazolo[1,5-a]pyrimidin-3-yl)(thien-2-yl)methanone] | 10 to 50 | 1 to 20 | 
21 | Cc1cc(-c2cccc(NC(=O)OCC(C)(C)C)c2)n2ncc(C(=O)c3cccs3)c2n1 [Example 200, neopentyl 3-[5-methyl-3-(thien-2-ylcarbonyl)pyrazolo[1,5-a]pyrimidin-7-yl]phenylcarbamate] |  |  | IC50 [1, 4]: < 1 µM; IC50 (LoVo Colon cell line; [5]): 0.1 to 1 µM
22 | Nc1cc(-c2ccnc3c(C(=O)c4cccs4)cnn23)ccc1F [Example 352, [7-(3-Amino-4-fluorophenyl)pyrazolo[1,5-a]pyrimidin-3-yl](thien-2-yl)methanone] | 1 to 10 | 1 to 20 | 
23 | CC(C)NC(=O)Nc1cc(-c2ccnc3c(C(=O)c4cccs4)cnn23)ccc1F [Example 382, N-{2-Fluoro-5-[3-(thien-2-ylcarbonyl)pyrazolo[1,5-a]pyrimidin-7-yl]phenyl}-N′-isopropylurea] | < 1 | < 0.1 | 
24 | COc1ccc(-c2cnn3c(-c4cccc(NC(=O)CC(C)C)c4)ccnc23)cc1C=O [Example 484, N-{3-[3-(3-Formyl-4-methoxyphenyl)pyrazolo[1,5-a]pyrimidin-7-yl]phenyl}-3-methylbutanamide] | 1 to 10 | 1 to 20 | 
25 | CC(C)=CCOC(=O)Nc1cccc(-c2ccnc3c(C(=O)c4cccs4)cnn23)c1 [Example 177, 3-methylbut-2-enyl 3-[3-(thien-2-ylcarbonyl)pyrazolo[1,5-a]pyrimidin-7-yl]phenylcarbamate] |  |  | IC50 [1, 4]: 1 to 10 µM; IC50 (LoVo Colon cell line; [5]): < 0.1 µM
26 | O=C(Cc1ccncc1)Nc1cccc(-c2ccnc3c(C(=O)c4cccs4)cnn23)c1 [Example 427, 2-Pyridin-4-yl-N-{3-[3-(thien-2-ylcarbonyl)pyrazolo[1,5-a]pyrimidin-7-yl]phenyl}acetamide] | < 1 | 1 to 20 | 
27 | CCCOC(=O)Nc1cccc(-c2cc(C)nc3c(C(=O)c4cccs4)cnn23)c1 [Example 194, propyl 3-[5-methyl-3-(thien-2-ylcarbonyl)pyrazolo[1,5-a]pyrimidin-7-yl]phenylcarbamate] |  |  | IC50 [1, 4]: < 1 µM; IC50 (LoVo Colon cell line; [5]): < 0.1 µM
28 | O=C(Nc1cc(-c2ccnc3c(C(=O)c4cccs4)cnn23)ccc1F)OCCCl [Example 381, 2-Chloroethyl 2-fluoro-5-[3-(thien-2-ylcarbonyl)pyrazolo[1,5-a]pyrimidin-7-yl]phenylcarbamate] |  |  | IC50 ([1]; Homo sapiens, 80S14, 120 h, read-out: IC50 for 80S14 (uM)): < 1 µM; IC50 (LoVo Colon cell line; Homo sapiens, LoVo, 96 h): < 0.1 µM
29 | O=C(O)CCC(=O)Nc1cccc(-c2ccnc3c(C(=O)c4cccs4)cnn23)c1 [Example 442, 4-Oxo-4-({3-[3-(thien-2-ylcarbonyl)pyrazolo[1,5-a]pyrimidin-7-yl]phenyl}amino)butanoic acid] | 10 to 50 | 1 to 20 | 
30 | CC(CNc1cccc(-c2ccnc3c(C(=O)c4cccs4)cnn23)c1)c1ccccc1 (stereo not shown) [Example 378, (7-{3-[(2-Phenylpropyl)amino]phenyl}pyrazolo[1,5-a]pyrimidin-3-yl)(thien-2-yl)methanone] | 1 to 10 | 1 to 20 | 
31 | O=C(O)CCCC(=O)Nc1cccc(-c2ccnc3c(C(=O)c4cccs4)cnn23)c1 [Example 444, 5-Oxo-5-({3-[3-(thien-2-ylcarbonyl)pyrazolo[1,5-a]pyrimidin-7-yl]phenyl}amino)pentanoic acid] | 10 to 50 | 1 to 20 | 
32 | Cc1ccc(-c2ccnc3c(C(=O)c4cccs4)cnn23)cc1NC(=O)NC(C)C [Example 311, N-Isopropyl-N′-{2-methyl-5-[3-(2-thienylcarbonyl)pyrazolo[1,5-a]pyrimidin-7-yl]phenyl}urea] | < 1 | < 0.1 | 
